Results published in publication PMC6934184, “Selective DNA-PKcs inhibition extends the therapeutic index of localized radiotherapy and chemotherapy” (The Journal of Clinical Investigation, 2019).

Biological target: T1, CDK9/cyclin T1 (Homo sapiens, UniProt P50750)
T1 construct: purchased Thermo Fisher Scientific (Life Technologies) SelectScreen
Experiment: SelectScreen Adapta
Assay type: biochemical
How it was run: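 NU5455 was profiled across the SelectScreen Broad panel of kinase activity and binding assays. Z'LYTE reactions such as CSF1R ran at apparent Km ATP, while the Adapta CAMK1 assay used ATP listed as 10. Values are given as percent.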

T1 sequence (P50750 whole entry): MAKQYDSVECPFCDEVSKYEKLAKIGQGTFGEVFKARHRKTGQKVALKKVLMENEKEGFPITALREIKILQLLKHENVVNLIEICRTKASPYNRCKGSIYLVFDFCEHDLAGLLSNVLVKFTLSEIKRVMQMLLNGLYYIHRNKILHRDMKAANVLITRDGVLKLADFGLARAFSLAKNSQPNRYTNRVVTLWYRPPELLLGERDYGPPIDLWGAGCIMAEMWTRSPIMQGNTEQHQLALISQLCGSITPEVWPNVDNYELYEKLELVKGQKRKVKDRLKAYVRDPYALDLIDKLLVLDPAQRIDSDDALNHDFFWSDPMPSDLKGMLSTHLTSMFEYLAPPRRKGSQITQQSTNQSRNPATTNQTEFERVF
T1 sequence (O60563 whole entry partner): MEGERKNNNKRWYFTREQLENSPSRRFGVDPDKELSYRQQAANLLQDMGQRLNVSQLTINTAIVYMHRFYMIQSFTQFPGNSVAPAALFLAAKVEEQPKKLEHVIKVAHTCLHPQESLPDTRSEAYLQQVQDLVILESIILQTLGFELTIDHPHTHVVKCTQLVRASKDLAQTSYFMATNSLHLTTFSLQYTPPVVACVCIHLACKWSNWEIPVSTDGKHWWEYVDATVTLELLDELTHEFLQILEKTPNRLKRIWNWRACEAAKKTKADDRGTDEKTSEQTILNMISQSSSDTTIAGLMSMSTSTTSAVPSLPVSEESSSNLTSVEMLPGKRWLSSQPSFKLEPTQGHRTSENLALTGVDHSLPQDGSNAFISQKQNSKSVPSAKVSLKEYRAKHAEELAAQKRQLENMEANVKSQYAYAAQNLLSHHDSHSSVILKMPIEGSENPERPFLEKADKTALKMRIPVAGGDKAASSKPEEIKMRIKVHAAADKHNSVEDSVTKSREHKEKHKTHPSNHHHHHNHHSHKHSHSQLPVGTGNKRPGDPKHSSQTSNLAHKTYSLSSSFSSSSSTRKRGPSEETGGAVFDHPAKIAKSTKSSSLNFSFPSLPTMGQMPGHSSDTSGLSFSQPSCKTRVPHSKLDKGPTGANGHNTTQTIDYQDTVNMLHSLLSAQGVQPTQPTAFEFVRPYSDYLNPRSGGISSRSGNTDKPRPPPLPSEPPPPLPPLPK

## CN(C(=O)CN1CCOCC1)c1ccc2sc3c(-c4cccc5c(=O)cc(N6CC7CCC(C6)O7)oc45)cccc3c2c1 [NU5455]
  inhibition at 1 µM: -1.4%
